In US20230373985A1 (Origenis Gmbh, priority 2020, published 2023):

Experiments:
[1] = target: T1, wt human JAK1, catalytic site (Homo sapiens, UniProt P23458); experiment: HTRF KinEASE assay, JAK1; type: biochemical; details: 2.5 μM ATP; read-out: IC50, Activity Toward JAK1
T1 construct: wt human JAK1, catalytic site; purchased ThermoFisher
In short: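 Compounds in DMSO dilution were mixed with kinase, biotin-TK substrate and ATP and reacted for ≥30 min at room temperature. Detection reagents (antibody, streptavidin-XL665) were read 60 min later as HTRF, with emission ratios analysed per KinEASE protocol.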

[2] = target: T2, wt human LRRK2, catalytic site (Homo sapiens, UniProt Q5S007); experiment: TR-FRET LanthaScreen Eu Kinase Binding Assay, LRRK2 wt; details: one range stated for wt and G2019, read-out: IC50, Activity Toward LRRK2(Wt)
T2 construct: 5 nM wt human LRRK2, catalytic site; purchased ThermoFisher
T2 sequence (Q5S007 970-2527 limits assumed): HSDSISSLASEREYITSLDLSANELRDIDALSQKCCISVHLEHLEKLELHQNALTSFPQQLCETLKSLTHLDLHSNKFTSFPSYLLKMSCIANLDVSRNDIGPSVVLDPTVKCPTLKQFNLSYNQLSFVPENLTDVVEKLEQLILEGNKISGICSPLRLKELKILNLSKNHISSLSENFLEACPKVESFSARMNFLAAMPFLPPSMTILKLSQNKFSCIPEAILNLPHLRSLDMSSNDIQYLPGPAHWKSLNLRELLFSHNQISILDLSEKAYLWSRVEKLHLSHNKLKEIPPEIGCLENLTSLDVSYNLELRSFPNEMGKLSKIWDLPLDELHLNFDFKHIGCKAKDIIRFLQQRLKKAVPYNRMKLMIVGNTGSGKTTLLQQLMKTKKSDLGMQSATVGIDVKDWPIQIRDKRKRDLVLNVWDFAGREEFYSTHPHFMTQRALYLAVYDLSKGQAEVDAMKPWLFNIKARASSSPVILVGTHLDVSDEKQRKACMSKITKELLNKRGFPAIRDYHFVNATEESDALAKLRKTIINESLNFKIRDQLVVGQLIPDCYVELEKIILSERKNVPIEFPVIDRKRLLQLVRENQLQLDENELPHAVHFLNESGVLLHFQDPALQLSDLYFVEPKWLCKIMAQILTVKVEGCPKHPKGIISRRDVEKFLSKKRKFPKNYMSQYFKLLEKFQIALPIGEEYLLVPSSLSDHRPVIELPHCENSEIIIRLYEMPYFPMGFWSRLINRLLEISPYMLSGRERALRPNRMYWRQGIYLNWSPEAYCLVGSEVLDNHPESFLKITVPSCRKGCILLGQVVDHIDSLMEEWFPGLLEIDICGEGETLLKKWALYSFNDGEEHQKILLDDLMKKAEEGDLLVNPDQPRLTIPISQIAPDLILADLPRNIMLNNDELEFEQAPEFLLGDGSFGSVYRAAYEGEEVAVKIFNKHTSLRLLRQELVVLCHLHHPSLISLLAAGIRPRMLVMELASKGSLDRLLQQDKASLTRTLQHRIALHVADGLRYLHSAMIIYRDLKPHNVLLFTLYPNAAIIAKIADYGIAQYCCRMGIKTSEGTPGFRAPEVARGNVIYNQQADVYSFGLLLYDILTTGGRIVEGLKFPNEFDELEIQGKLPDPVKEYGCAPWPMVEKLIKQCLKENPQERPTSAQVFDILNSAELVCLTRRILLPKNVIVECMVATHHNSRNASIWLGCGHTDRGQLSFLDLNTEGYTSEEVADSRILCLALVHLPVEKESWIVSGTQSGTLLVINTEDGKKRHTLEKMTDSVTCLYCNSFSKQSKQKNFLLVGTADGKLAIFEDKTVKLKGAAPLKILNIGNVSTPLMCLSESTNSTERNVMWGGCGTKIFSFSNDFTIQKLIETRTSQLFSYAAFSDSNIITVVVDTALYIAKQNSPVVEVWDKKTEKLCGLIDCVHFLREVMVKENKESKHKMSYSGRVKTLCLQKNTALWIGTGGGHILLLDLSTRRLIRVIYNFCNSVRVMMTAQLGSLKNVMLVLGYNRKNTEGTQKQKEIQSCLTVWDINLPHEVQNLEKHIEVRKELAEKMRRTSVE
In short: (§1)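 Kinase Buffer A holding, as final levels, 8 nM full-length NUAK1, 2 nM Eu-anti-His antibody and 5 nM Tracer 236, or 5 nM LRRK2 catalytic site (wt or G2019S), 2 nM Eu-anti-GST and 10 nM Tracer 236. Compound added, then 1 h at room temperature before TR-FRET ratio readout.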

[3] = target: T3, wt human TYK2, catalytic site (Homo sapiens, UniProt P29597); experiment: HTRF KinEASE assay, TYK2; type: biochemical; details: 1 μM ATP; read-out: IC50, Activity Toward TYK2
T3 construct: wt human TYK2, catalytic site; purchased SignalChem
T3 sequence (P29597 897-1176 limits assumed): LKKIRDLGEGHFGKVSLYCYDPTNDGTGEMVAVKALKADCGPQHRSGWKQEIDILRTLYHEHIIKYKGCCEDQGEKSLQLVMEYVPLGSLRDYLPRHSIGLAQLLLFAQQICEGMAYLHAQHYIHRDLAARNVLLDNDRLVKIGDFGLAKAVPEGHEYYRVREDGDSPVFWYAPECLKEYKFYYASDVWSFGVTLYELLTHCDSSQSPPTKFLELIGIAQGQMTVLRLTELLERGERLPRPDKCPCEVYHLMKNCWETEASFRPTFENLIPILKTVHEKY
In short: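 Kinase reaction run at room temperature for at least 30 min: 2 nM TYK2 with 1 μM ATP, or 1 nM JAK2 with 100 μM ATP, each with 1 μM biotin-TK substrate. Phosphorylation detected by HTRF (60 min antibody/XL665) and evaluated from emission ratios.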

[4] = target: T4, G2019S human LRRK2, catalytic site (Homo sapiens, UniProt Q5S007, G2019S); experiment: TR-FRET LanthaScreen Eu Kinase Binding Assay, LRRK2 G2019S; details: LRRK2(G2019); one range stated for wt and G2019; read-out: IC50, Activity Toward LRRK2(G2019)
T4 construct: G2019S human LRRK2, catalytic site; purchased ThermoFisher
T4 sequence (Q5S007 970-2527 G2019S limits assumed): as the sequence (Q5S007 970-2527 limits assumed) above, with G1050S counted along it
In short: as §1

[5] = target: T5, wt human JAK2, catalytic site (Homo sapiens, UniProt O60674); experiment: HTRF KinEASE assay, JAK2; type: biochemical; details: assay format not given (Z'-LYTE or HTRF KinEASE); read-out: IC50, Activity Toward JAK2
T5 construct: wt human JAK2, catalytic site; purchased SignalChem
T5 sequence (O60674 849-1124 limits assumed): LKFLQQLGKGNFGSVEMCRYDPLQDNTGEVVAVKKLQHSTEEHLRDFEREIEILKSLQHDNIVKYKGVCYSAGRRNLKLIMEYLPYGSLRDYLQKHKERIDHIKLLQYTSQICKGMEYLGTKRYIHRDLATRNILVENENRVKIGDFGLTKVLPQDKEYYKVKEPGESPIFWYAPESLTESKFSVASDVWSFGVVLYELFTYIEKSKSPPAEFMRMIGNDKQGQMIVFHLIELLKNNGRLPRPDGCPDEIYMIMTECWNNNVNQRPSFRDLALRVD
Method: Basic protocol for HTRF KinEASE assay (Cisbio/FRA) inhibitor studies involved two steps: • Enzymatic step: Addition of 4 μL of test compound in corresponding DMSO dilutions, 4 μL of kinase/substrate mixture, 2 μL of ATP into 384 well small volume plates. Incubation for at least 30 minutes at room temperature. • Detection step: Addition of 5 μL antibody and 5 μL streptavidin-XL665, read plate after 60 minutes. Data analysis of emission ratios according KinEASE assay protocol.
(§2) Kinase and assay components were adjusted to final concentrations according to kit protocol. For TYK2: 2 nM wt human TYK2, catalytic site (SignalChem/CAN), 1 μM HTRF KinEASE-TK Substrate-biotin, 1 μM ATP in 1× Kinase Buffer. For JAK1: 4 nM wt human JAK1, catalytic site (ThermoFisher/USA), 1 μM HTRF KinEASE-TK Substrate-biotin, 2.5 μM ATP in 1× Kinase Buffer. For JAK2: 1 nM wt human JAK2, catalytic site (SignalChem/CAN), 1 μM HTRF KinEASE-TK Substrate-biotin, 100 μM ATP in 1× Kinase Buffer.
as §2

T1 sequence (P23458 875-1153 limits assumed): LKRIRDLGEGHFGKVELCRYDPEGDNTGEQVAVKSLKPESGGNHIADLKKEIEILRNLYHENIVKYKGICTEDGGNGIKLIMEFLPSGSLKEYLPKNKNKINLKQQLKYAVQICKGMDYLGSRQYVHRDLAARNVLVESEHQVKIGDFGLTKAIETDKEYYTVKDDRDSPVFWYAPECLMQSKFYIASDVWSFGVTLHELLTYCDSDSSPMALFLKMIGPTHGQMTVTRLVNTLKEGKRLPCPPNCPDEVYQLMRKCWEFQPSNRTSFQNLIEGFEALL

Compound	IC50 [1]	IC50 [2]	IC50 [3]	IC50 [4]	IC50 [5]
NC(=O)c1nn(-c2c(Cl)cccc2Cl)cc1Nc1ccc(C(=O)N2CCOCC2)cc1 [compound 17, 1-(2,6-dichlorophenyl)-4-((4-(morpholine-4-carbonyl)phenyl)amino)-1H-pyrazole-3-carboxamide]	10 to 100 nM	100 to 1000 nM	< 10 nM	100 to 1000 nM	100 to 1000 nM
CN1CCN(C(=O)c2ccc(Nc3cn(-c4c(Cl)cccc4Cl)nc3C(N)=O)cc2)CC1 [compound 32, 1-(2,6-dichlorophenyl)-4-((4-(4-methylpiperazine-1-carbonyl)phenyl)amino)-1H-pyrazole-3-carboxamide]	10 to 100 nM	100 to 1000 nM	< 10 nM	100 to 1000 nM	100 to 1000 nM
NC(=O)c1nn(-c2c(Cl)cccc2Cl)cc1Nc1ccc(-c2nnc3n2CCOC3)cc1 [compound 57, 1-(2,6-dichlorophenyl)-4-((4-(6,8-dihydro-5H-[1,2,4]triazolo[3,4-c][1,4]oxazin-3-yl)phenyl)amino)-1H-pyrazole-3-carboxamide]	100 to 1000 nM	100 to 1000 nM	< 10 nM	100 to 1000 nM	100 to 1000 nM
NC(=O)c1nn(-c2c(Cl)cccc2Cl)nc1Nc1ccc(C(=O)N2CC(C(N)=O)C2)cc1 [compound 108]	< 10 nM	100 to 1000 nM	< 10 nM	100 to 1000 nM	100 to 1000 nM
NC(=O)c1nn(-c2c(Cl)cccc2Cl)nc1Nc1ccc(-c2nncn2CC(F)F)cc1 [compound 113, 2-(2,6-dichlorophenyl)-5-((4-(4-(2,2-difluoroethyl)-4H-1,2,4-triazol-3-yl)phenyl)amino)-2H-1,2,3-triazole-4-carboxamide]	< 10 nM	100 to 1000 nM	10 to 100 nM	100 to 1000 nM	100 to 1000 nM
CC(C)n1cnnc1-c1ccc(Nc2nn(-c3c(Cl)cccc3Cl)nc2C(N)=O)cc1 [compound 116, 2-(2,6-dichlorophenyl)-5-((4-(4-isopropyl-4H-1,2,4-triazol-3-yl)phenyl)amino)-2H-1,2,3-triazole-4-carboxamide]	–	100 to 1000 nM	< 10 nM	100 to 1000 nM	100 to 1000 nM
CN(C)C1CCN(C(=O)c2ccc(Nc3nn(-c4c(Cl)cccc4Cl)nc3C(N)=O)cc2)CC1 [compound 122, 2-(2,6-dichlorophenyl)-5-((4-(4-(dimethylamino)piperidine-1-carbonyl)phenyl)amino)-2H-1,2,3-triazole-4-carboxamide]	10 to 100 nM	100 to 1000 nM	< 10 nM	100 to 1000 nM	100 to 1000 nM
NC(=O)c1nn(-c2c(Cl)ccc(F)c2Cl)nc1Nc1ccc(C(=O)N2CCOCC2)cc1 [compound 138, 2-(2,6-dichloro-3-fluorophenyl)-5-((4-(morpholine-4-carbonyl)phenyl)amino)-2H-1,2,3-triazole-4-carboxamide]	< 10 nM	–	10 to 100 nM	–	100 to 1000 nM
NC(=O)c1nn(-c2c(Cl)ccc(F)c2Cl)nc1Nc1ccc(C(=O)N2CC[C@@H](F)C2)cc1 [compound 145, (R)-2-(2,6-dichloro-3-fluorophenyl)-5-((4-(3-fluoropyrrolidine-1-carbonyl)phenyl)amino)-2H-1,2,3-triazole-4-carboxamide]	< 10 nM	–	10 to 100 nM	–	100 to 1000 nM
NC(=O)c1nn(-c2c(F)ccc(F)c2Cl)nc1Nc1ccc(C(=O)N2CC[C@@H](F)C2)cc1 [compound 147, (R)-2-(2-chloro-3,6-difluorophenyl)-5-((4-(3-fluoropyrrolidine-1-carbonyl)phenyl)amino)-2H-1,2,3-triazole-4-carboxamide]	< 10 nM	–	10 to 100 nM	–	100 to 1000 nM
N#Cc1cccc(Cl)c1-n1nc(Nc2ccc(C(=O)N3CC[C@@H](F)C3)cc2)c(C(N)=O)n1 [compound 162, (R)-2-(2-chloro-6-cyanophenyl)-5-((4-(3-fluoropyrrolidine-1-carbonyl)phenyl)amino)-2H-1,2,3-triazole-4-carboxamide]	10 to 100 nM	–	< 10 nM	–	100 to 1000 nM
NC(=O)c1nn(-c2c(Cl)cccc2Cl)nc1Nc1ccc(C(=O)N2CCS(=O)(=O)CC2)cc1 [compound 163, 2-(2,6-dichlorophenyl)-5-((4-(1,1-dioxidothiomorpholine-4-carbonyl)phenyl)amino)-2H-1,2,3-triazole-4-carboxamide]	< 10 nM	–	< 10 nM	–	100 to 1000 nM
N#Cc1cccc(F)c1-n1nc(Nc2ccc(C(=O)N3CC[C@@H](F)C3)cc2)c(C(N)=O)n1 [compound 164, (R)-2-(2-cyano-6-fluorophenyl)-5-((4-(3-fluoropyrrolidine-1-carbonyl)phenyl)amino)-2H-1,2,3-triazole-4-carboxamide]	10 to 100 nM	–	10 to 100 nM	–	100 to 1000 nM
NC(=O)c1nn(-c2c(Cl)ccc(F)c2F)nc1Nc1ccc(C(=O)N2CC[C@@H](F)C2)cc1 [compound 167, (R)-2-(6-chloro-2,3-difluorophenyl)-5-((4-(3-fluoropyrrolidine-1-carbonyl)phenyl)amino)-2H-1,2,3-triazole-4-carboxamide]	10 to 100 nM	–	10 to 100 nM	–	100 to 1000 nM
N=S1(=O)CCN(C(=O)c2ccc(Nc3nn(-c4c(Cl)cccc4Cl)nc3C(N)=O)cc2)CC1 [compound 169, 2-(2,6-dichlorophenyl)-5-((4-(1-imino-1-oxidothiomorpholine-4-carbonyl)phenyl)amino)-2H-1,2,3-triazole-4-carboxamide]	< 10 nM	–	< 10 nM	–	100 to 1000 nM
CN=S1(=O)CCN(C(=O)c2ccc(Nc3nn(-c4c(Cl)cccc4Cl)nc3C(N)=O)cc2)CC1 [compound 171, 2-(2,6-dichlorophenyl)-5-((4-(1-(methylimino)-1-oxidothiomorpholine-4-carbonyl)phenyl)amino)-2H-1,2,3-triazole-4-carboxamide]	< 10 nM	–	< 10 nM	–	100 to 1000 nM
NC(=O)c1nn(-c2c(Cl)cccc2Cl)cc1Nc1ccc(-c2nncn2CC(F)(F)F)cc1 [compound 210, 1-(2,6-dichlorophenyl)-4-((4-(4-(2,2,2-trifluoroethyl)-4H-1,2,4-triazol-3-yl)phenyl)amino)-1H-pyrazole-3-carboxamide]	100 to 1000 nM	–	10 to 100 nM	–	100 to 1000 nM
Cn1nnnc1-c1ccc(Nc2cn(-c3c(Cl)cccc3Cl)nc2C(N)=O)cc1 [compound 238, 1-(2,6-dichlorophenyl)-4-((4-(1-methyl-1H-tetrazol-5-yl)phenyl)amino)-1H-pyrazole-3-carboxamide]	10 to 100 nM	–	< 10 nM	–	100 to 1000 nM
NC(=O)c1nn(-c2c(Cl)cccc2Cl)cc1Nc1ccc(C(=O)N2CCS(=O)(=O)CC2)cc1 [compound 451, 1-(2,6-dichlorophenyl)-4-((4-(1,1-dioxidothiomorpholine-4-carbonyl)phenyl)amino)-1H-pyrazole-3-carboxamide]	< 10 nM	–	< 10 nM	–	100 to 1000 nM
N#Cc1cccc(Cl)c1-n1cc(Nc2ccc(C(=O)N3CCS(=O)(=O)CC3)cc2)c(C(N)=O)n1 [compound 457, 1-(2-chloro-6-cyanophenyl)-4-((4-(1,1-dioxidothiomorpholine-4-carbonyl)phenyl)amino)-1H-pyrazole-3-carboxamide]	10 to 100 nM	–	< 10 nM	–	100 to 1000 nM
